In brackets after ≈: the same amount, converted by molar mass.
What was measured:
Assay type in all cases: functional
Staphylococcus aureus = experiment: Minimum inhibitory concentration of the compound against erythromycin-susceptible Staphylococcus aureus Smith OC4172 was determined
Streptococcus pneumoniae [1] = experiment: Minimum inhibitory concentration of the compound against erythromycin-susceptible Streptococcus pneumoniae was determined
Streptococcus pneumoniae [2] = experiment: Minimum inhibitory concentration of the compound against 3 […] Streptococcus pneumoniae OC4051 with an erm(B)-ribosomal methylase-mediated resistance was determined
Haemophilus influenzae = experiment: Minimum inhibitory concentration of the compound against Haemophilus influenzae OC4882 was determined
Streptococcus pneumoniae [3] = experiment: Minimum inhibitory concentration of the compound against 3 […] Streptococcus pneumoniae OC4421 with an mef(A) efflux-mediated resistance was determined
Enterococcus faecalis = experiment: Minimum inhibitory concentration of the compound againstEnterococcus faecalis ATCC 51299 with an erm(B)-encoded ribosomal methylase was determined

Row | Compound | MIC (Staphylococcus aureus) [µg/mL] | MIC (Streptococcus pneumoniae [1]) [µg/mL] | MIC (Streptococcus pneumoniae [2]) [µg/mL] | MIC (Haemophilus influenzae) [µg/mL] | MIC (Streptococcus pneumoniae [3]) [µg/mL] | MIC (Enterococcus faecalis) [µg/mL]
1 | CC[C@H]1OC(=O)[C@@](C)(F)C(=O)[C@H](C)[C@@H](O[C@@H]2O[C@H](C)C[C@H](N(C)C)[C@H]2O)[C@](C)(OC(=O)NC/C=C/c2ccc(-n3cccn3)cc2)C[C@@H](C)C(=O)[C@H](C)[C@H]2NC(=O)O[C@@]21C | 0.25 (≈ 0.297 µM) | 0.03 (≈ 0.0356 µM) | 0.12 (≈ 0.143 µM) | 8 (≈ 9.5 µM) | 0.5 (≈ 0.594 µM) | 8 (≈ 9.5 µM)
2 | CC[C@H]1OC(=O)[C@@](C)(F)C(=O)[C@H](C)[C@@H](O[C@@H]2O[C@H](C)C[C@H](N(C)C)[C@H]2O)[C@](C)(OC(=O)NCc2cn(-c3ncccn3)cn2)C[C@@H](C)C(=O)[C@H](C)[C@H]2NC(=O)O[C@@]21C | 0.25 (≈ 0.306 µM) | 0.03 (≈ 0.0367 µM) | 0.12 (≈ 0.147 µM) | 4 (≈ 4.89 µM) | 0.5 (≈ 0.611 µM) | > 16
3 | CC[C@H]1OC(=O)[C@@](C)(F)C(=O)[C@H](C)[C@@H](O[C@@H]2O[C@H](C)C[C@H](N(C)C)[C@H]2O)[C@](C)(OC(=O)NC/C=C/c2ccccc2)C[C@@H](C)/C(=N\O)[C@H](C)[C@H]2NC(=O)O[C@@]21C | 0.25 (≈ 0.316 µM) | 0.03 (≈ 0.0379 µM) | 0.12 (≈ 0.152 µM) | 2 (≈ 2.53 µM) | 0.5 (≈ 0.632 µM) | > 16
4 | CC[C@H]1OC(=O)[C@@](C)(F)C(=O)[C@H](C)[C@@H](O[C@@H]2O[C@H](C)C[C@H](N(C)C)[C@H]2O)[C@](C)(OC(=O)NC/C=C/c2ccc3ncccc3c2)C[C@@H](C)/C(=N\O)[C@H](C)[C@H]2NC(=O)O[C@@]21C | 0.25 (≈ 0.297 µM) | 0.03 (≈ 0.0356 µM) | 0.03 (≈ 0.0356 µM) | 2 (≈ 2.38 µM) | 0.12 (≈ 0.143 µM) | 2 (≈ 2.38 µM)
5 | CC[C@H]1OC(=O)[C@@](C)(F)C(=O)[C@H](C)[C@@H](O[C@@H]2O[C@H](C)C[C@H](N(C)C)[C@H]2O)[C@](C)(OC(=O)NC/C=C/c2cn(-c3cnccn3)cn2)C[C@@H](C)C(=O)[C@H](C)[C@H]2NC(=O)O[C@@]21C | 0.25 (≈ 0.296 µM) | 0.03 (≈ 0.0355 µM) | 0.06 (≈ 0.0711 µM) | 8 (≈ 9.48 µM) | 0.25 (≈ 0.296 µM) | 16 (≈ 19 µM)
6 | CC[C@H]1OC(=O)[C@@](C)(F)C(=O)[C@H](C)[C@@H](O[C@@H]2O[C@H](C)C[C@H](N(C)C)[C@H]2O)[C@](C)(OC(=O)NC/C=C/c2ccc3ncccc3c2)C[C@@H](C)C(=O)[C@H](C)[C@H]2NC(=O)O[C@@]21C | 0.25 (≈ 0.302 µM) | 0.06 (≈ 0.0726 µM) | 0.06 (≈ 0.0726 µM) | 4 (≈ 4.84 µM) | 0.06 (≈ 0.0726 µM) | 4 (≈ 4.84 µM)
7 | CC[C@H]1OC(=O)[C@@](C)(F)C(=O)[C@H](C)[C@@H](O[C@@H]2O[C@H](C)C[C@H](N(C)C)[C@H]2O)[C@](C)(OC(=O)NC/C=C/c2ccc(-n3cnnc3)cc2)C[C@@H](C)C(=O)[C@H](C)[C@H]2NC(=O)O[C@@]21C | 0.5 (≈ 0.593 µM) | 0.06 (≈ 0.0712 µM) | 0.12 (≈ 0.142 µM) | 8 (≈ 9.49 µM) | 0.5 (≈ 0.593 µM) | > 16
8 | CC[C@H]1OC(=O)[C@@](C)(F)C(=O)[C@H](C)[C@@H](O[C@@H]2O[C@H](C)C[C@H](N(C)C)[C@H]2O)[C@](C)(OC(N)=O)C[C@@H](C)C(=O)[C@H](C)[C@H]2NC(=O)O[C@@]21C | 1 (≈ 1.52 µM) | 0.12 (≈ 0.182 µM) | > 16 | 8 (≈ 12.1 µM) | 2 (≈ 3.03 µM) | > 16
9 | CC[C@H]1OC(=O)[C@@](C)(F)C(=O)[C@H](C)[C@@H](O[C@@H]2O[C@H](C)C[C@H](N(C)C)[C@H]2O)[C@](C)(OC(=O)NC/C=C/c2ccc(-c3cnccn3)cc2)C[C@@H](C)C(=O)[C@H](C)[C@H]2NC(=O)O[C@@]21C | 0.25 (≈ 0.293 µM) | 0.03 (≈ 0.0351 µM) | 0.06 (≈ 0.0703 µM) | 4 (≈ 4.68 µM) | 0.06 (≈ 0.0703 µM) | 4 (≈ 4.68 µM)
10 | CC[C@H]1OC(=O)[C@@](C)(F)C(=O)[C@H](C)[C@@H](O[C@@H]2O[C@H](C)C[C@H](N(C)C)[C@H]2O)[C@](C)(OC(=O)NC/C=C/c2ccc(-c3cccnn3)cc2)C[C@@H](C)/C(=N\O)[C@H](C)[C@H]2NC(=O)O[C@@]21C | 0.5 (≈ 0.575 µM) | 0.03 (≈ 0.0345 µM) | 0.06 (≈ 0.069 µM) | 2 (≈ 2.3 µM) | 0.25 (≈ 0.288 µM) | > 4
11 | CC[C@H]1OC(=O)[C@H](C)[C@@H](O[C@H]2C[C@@](C)(OC)[C@@H](O)[C@H](C)O2)[C@H](C)[C@@H](O[C@@H]2O[C@H](C)C[C@H](N(C)C)[C@H]2O)[C@](C)(O)C[C@@H](C)C(=O)[C@H](C)[C@@H](O)[C@]1(C)O [ERYTHROMYCIN] | 0.5 (≈ 0.681 µM) | 0.06 (≈ 0.0818 µM) | > 16 | 8 (≈ 10.9 µM) | 4 (≈ 5.45 µM) | > 16
12 | CC[C@H]1OC(=O)[C@H](C)C(=O)[C@H](C)[C@@H](O[C@@H]2O[C@H](C)C[C@H](N(C)C)[C@H]2O)[C@](C)(OC)C[C@@H](C)C(=O)[C@H](C)[C@H]2N(CCCCn3cnc(-c4cccnc4)c3)C(=O)O[C@]12C [TELITHROMYCIN] | 0.12 (≈ 0.148 µM) | ≤ 0.015 | 0.06 (≈ 0.0739 µM) | 2 (≈ 2.46 µM) | 0.12 (≈ 0.148 µM) | 16 (≈ 19.7 µM)
